Source: patent US5891895A, “Hydroxypyridine derivatives their production and use” (Takeda Chemical Industries, Ltd., priority 1996, dated 1999)

Assays:
rat aorta preparations [1] = assay: Vasorelaxant effect on rat aorta preparations: contractions induced by tetraethyl ammonium chloride (TEA) and barium chloride (BaCl2); type: cell-based, Male Wistar rats; details: TEA (30-45 mM) and BaCl2 (0.3 mM), read-out: constriction inhibitory ratio
Experimental: (§1) Vasorelaxant effect on rat aorta preparations
Effects on contractions induced by tetraethyl ammonium chloride (TEA) and barium chloride (BaCl2)
(§2) Method: Male Wistar rats (10 to 13 weeks old) were used. After exsanguination, the aorta was isolated. Aortic rings (5 mm long) were prepared and then suspended in a bath filled with oxygenated (95% O2 -5% CO2) Krebs solution (36° C.). One end of each ring preparation was fixed and the other end was connected to a tension transducer (Nihon Kohden), and tension of the ring preparation was measured. After an equilibration period of one hour, TEA (30-45 mM) and BaCl2 (0.3 mM) were added in the bath to produce vasoconstriction. After the contractions reached a steady state (after about 15 min.), each test compound was added and its relaxant effect was investigated.

rat aorta preparations [2] = assay: Vasorelaxant effect on rat aorta preparations: constriction induced by potassium chloride (KCl); type: cell-based, Male Wistar rats; details: KCl (80 mM), read-out: constriction inhibitory ratio
Experimental: as §2, §1
Effect on constriction induced by potassium chloride (KCl)
Method: This experiment was performed using KCl (80 mM) instead of TEA and BaCl2 used in Experimental Example 1. Apart from this, the procedures were substantially the same as in Experimental Example 1.

coronary blood flow = assay: Coronary blood flow-increasing effect in anesthetized dogs (administration into the coronary artery); type: in vivo; details: 30 μg/dog into the coronary artery, anesthetized beagle dogs
Experimental: Coronary blood flow-increasing effect in anesthetized dogs (administration into the coronary artery)
Method: After beagle dogs (10 to 12 kg) were anesthetized with pentobarbital, the chest was opened under artificial respiration. A bypass fitted with an electromagnetic flowmeter (Nihon Kohden) was prepared between the left coronary artery and the left carotid artery, and the coronary blood flow was measured. Each test compound was dissolved in 50% polyethylene glycol in physiological saline, 50% DMF in physiological saline or DMF for administration (30 μg/dog) into the coronary artery through the bypass.
Results: The greatest percentage change (% of basal flow) and duration (expressed as half-time (T1/2) in which the effect is reduced to half) are shown in Table 14.

[3] = test system: spontaneously hypertensive rats (SHR); assay: Antihypertensive effect in rats (SHR); type: in vivo; details: 0.3 mg/kg orally
Experimental: (§3) Antihypertensive effect in rats
(§4) Method: 23 to 27-week-old spontaneously hypertensive rats (SHR) or normotensive rats (Wistar-Kyoto rats (WKY)) were anesthetized with pentobarbital (60 mg/kg, i.p.). A polyethylene catheter filled with physiological saline containing 20% heparin was inserted into the left femoral artery and left in place. The other end of the catheter was tunneled subcutaneously to the back and fixed there. After one night, the animals were used in the experiment in the fasting state. Blood pressure was recorded on an ink-writing recorder through the arterial catheter via a pressure transducer. Blood pressure was estimated from flood pressure waves recorded on the recorder. After the blood pressure was stabilized, the test compounds (vehicle (0.5% methylcellulose, […]) or Compound 16 (0.3 mg/kg)) were administered orally.
(§5) Results: The changes in blood pressure and heart rate after administration of the test compounds are given as % of pretreatment basal values (percentage changes) in FIGS. 1 and 2. All values are presented as means±standard error.

[4] = test system: normotensive rats (Wistar-Kyoto rats (WKY)); assay: Antihypertensive effect in rats (WKY); type: in vivo; details: 0.3 mg/kg orally
Experimental: as §3, §4, §5

SMILES: CC(C)(C)O/N=C(/c1cccc(Br)c1)c1ncccc1O [Compound 1, (Z)-2-(3-bromo-α-t-butoxyiminobenzyl)-3-hydroxypyridine]
- inhibition at 0.1 µM (rat aorta preparations [1]): 57%
- inhibition at 0.3 µM (rat aorta preparations [1]): 59%
- inhibition at 0.1 µM (rat aorta preparations [2]): 0%
- inhibition at 0.3 µM (rat aorta preparations [2]): 0%
- duration (T1/2), half-time in which the effect is reduced to half (coronary blood flow): 6.7 min
- greatest percentage change (coronary blood flow): 133 % of basal flow

SMILES: CC(C)(C)O/N=C(/c1cccc(Br)c1)c1c(O)ccc[n+]1[O-] [Compound 3, (Z)-2-(3-bromo-α-t-butoxyiminobenzyl)-3-hydroxypyridine 1-oxide]
- inhibition at 0.3 µM (rat aorta preparations [1]): 47%
- inhibition at 1 µM (rat aorta preparations [1]): 97%
- inhibition at 0.3 µM (rat aorta preparations [2]): 0%
- inhibition at 1 µM (rat aorta preparations [2]): 2%
- duration (T1/2), half-time in which the effect is reduced to half (coronary blood flow): 24.4 min
- greatest percentage change (coronary blood flow): 155 % of basal flow

SMILES: CC(C)(C)O/N=C(/c1ccc(Cl)cc1)c1c(O)ccc[n+]1[O-] [Compound 7, (Z)-2-[α-(t-butoxyimino)-4-chlorobenzyl]-3-hydroxypyridine N-oxide]
- inhibition at 0.3 µM (rat aorta preparations [1]): 2%
- inhibition at 1 µM (rat aorta preparations [1]): 72%
- inhibition at 1 µM (rat aorta preparations [2]): 0%
- duration (T1/2), half-time in which the effect is reduced to half (coronary blood flow): 18.6 min
- greatest percentage change (coronary blood flow): 71 % of basal flow

SMILES: CC(C)(C)O/N=C(/c1ccc(Cl)c(Cl)c1)c1c(O)ccc[n+]1[O-] [Compound 11, (Z)-2-[α-(t-butoxyimino)-3,4-dichlorobenzyl]-3-hydroxypyridine N-oxide]
- inhibition at 0.3 µM (rat aorta preparations [1]): 49%
- inhibition at 1 µM (rat aorta preparations [1]): 63%
- inhibition at 1 µM (rat aorta preparations [2]): 0%
- duration (T1/2), half-time in which the effect is reduced to half (coronary blood flow): 30.5 min
- greatest percentage change (coronary blood flow): 66 % of basal flow

SMILES: CC(C)(C)O/N=C(/c1cc(Cl)cc(Cl)c1)c1ncccc1O [Compound 13, (Z)-2-[α-(t-butoxyimino)-3,5-dichlorobenzyl]-3-hydroxypyridine]
- inhibition at 0.3 µM (rat aorta preparations [1]): 21%
- inhibition at 1 µM (rat aorta preparations [1]): 53%
- inhibition at 1 µM (rat aorta preparations [2]): 4%

SMILES: CC(C)(C)O/N=C(/c1ccc(F)c(Br)c1)c1ncccc1O [Compound 16, (Z)-2-(3-bromo-α-t-butoxyimino-4-fluorobenzyl)-3-hydroxypyridine]
- inhibition at 0.1 µM (rat aorta preparations [1]): 87%
- inhibition at 0.1 µM (rat aorta preparations [2]): 4%
- duration (T1/2), half-time in which the effect is reduced to half (coronary blood flow): 43.5 min
- greatest percentage change (coronary blood flow): 136 % of basal flow
- duration of antihypertensive effect [3]: long duration
- effect on heart rate [3]: little effect
- onset of antihypertensive effect after administration [3]: 2 h
- greatest change in blood pressure (antihypertensive effect) ([3]; % of pretreatment basal values): 18%
- effect on blood pressure [4]: no effect
- effect on heart rate [4]: no effect

SMILES: CC(C)(C)O/N=C(/c1cccc(C(F)(F)F)c1)c1ncccc1O [Compound 21, (Z)-2-[α-(t-butoxyimino)-3-trifluoromethylbenzyl]-3-hydroxypyridine]
- inhibition at 0.3 µM (rat aorta preparations [1]): 45%
- inhibition at 1 µM (rat aorta preparations [1]): 100%
- inhibition at 0.3 µM (rat aorta preparations [2]): 1%
- inhibition at 1 µM (rat aorta preparations [2]): 8%

SMILES: CC(C)(C)O/N=C(/c1cccc([N+](=O)[O-])c1)c1ncccc1O [Compound 23, (Z)-2-[α-(t-butoxyimino)-3-nitrobenzyl]-3-hydroxypyridine]
- inhibition at 0.1 µM (rat aorta preparations [1]): 4%
- inhibition at 0.3 µM (rat aorta preparations [1]): 56%
- inhibition at 1 µM (rat aorta preparations [1]): 76%
- inhibition at 0.3 µM (rat aorta preparations [2]): 0%
- inhibition at 1 µM (rat aorta preparations [2]): 0%
- duration (T1/2), half-time in which the effect is reduced to half (coronary blood flow): 5.3 min
- greatest percentage change (coronary blood flow): 134 % of basal flow

SMILES: CC(C)(C)N/N=C(\c1cccc(Br)c1)c1ncccc1O [Compound 27, (E)-2-(3-bromo-α-t-butylhydrazinobenzyl)-3-hydroxypyridine]
- inhibition at 0.1 µM (rat aorta preparations [1]): 25%
- inhibition at 0.3 µM (rat aorta preparations [1]): 100%
- inhibition at 0.1 µM (rat aorta preparations [2]): 0%
- inhibition at 0.3 µM (rat aorta preparations [2]): 0%
- duration (T1/2), half-time in which the effect is reduced to half (coronary blood flow): 74.6 min
- greatest percentage change (coronary blood flow): 77 % of basal flow
